The text below walks through data of PMC5320730, “Synthetic curcumin derivative DK1 possessed G2/M arrest and induced apoptosis through accumulation of intracellular ROS in MCF-7 breast cancer cells” (Cancer Cell International, 2017).

Test [1] relates to HepG2 cells. Description: MTT cell viability assay, HepG2. Format: cell-based. Conditions: Homo sapiens. The procedure:
(§1) Promyelocytic leukemia HL60, hepatoblastoma HepG2, breast cancer MCF-7 and MDA-MB-231 cells were purchased from ATCC (USA) and cultured in RPMI-1640 media (Sigma, USA), supplemented with 10% fetal bovine serum (FBS) (PAA, USA). Normal epithelial MCF-10A cells (ATCC, USA) was maintain in DMEM-F12 (Sigma, USA) supplemented with hydrocortisone (0.5 μg/mL), insulin (10 μg/mL), human epidermal growth factor (hEGF) (20 ng/mL) (Sigma, USA) and 10% FBS (PAA, USA).
(§2) MTT cell viability assay was used to evaluate the effect of DK1 on viability of HL-60, HepG2, MCF-7, MDA-MB-231 and MCF-10A cells. Briefly, each type of cells (8 × 10^4cells/well) was seeded in 96-well plate in 37 °C CO2 incubator overnight. Then, DK1 was added at concentration ranging between 200 and 3.125 µM by twofold serial dilution. Untreated control was prepared simultaneously. After that, the cells were incubated for 24, 48 and 72 h at 37 °C in 5% CO2 incubator. After the incubation period, all well was added with 20 μL of MTT solution (5 mg/mL) and further incubated for 3 h. Subsequently, 170 μL of supernatant from each well was discarded, 100 μL of dimethyl sulfoxide (DMSO) was added to solubilize the purple formazan crystal and the absorbance was measured at a wavelength of 570 nm by Enzyme-linked immunosorbent assay (ELISA) plate reader (Bio-tek instruments, USA). All cell lines were assayed for three biological replicates each with triplicates. Percentage of cell viability was calculated using the following formula: Cell viability%=OD sample/OD control×100%
(§3) IC50 value (concentration of DK1 that reduce 50% of cell viability compared to control cell) was determined from the graph of cell viability (%) vs DK1 concentration. Subsequently, selective index, which indicating selectivity of DK1 against cancerous and normal breast cell lines, was calculated by: Selective indexSI=IC50of DK1on normal MCF-10A cell line/IC50on breast cancerous cell lineHL60/HepG2/MCF-7/MDA-MB-231

For test [2], the system named is MCF-7 cells. Description: MTT cell viability assay, MCF-7. Type of test: cell-based, human. Conditions: for IC50: Homo sapiens, MCF7, MCF-7, MTT. The procedure: as §1, §2, §3
Test [3] concerns GSH in MCF-7 cells. The experiment in a line: Intracellular glutathione (GSH) quantification. Format: cell-based, human. Conditions: MCF-7, 25 µM. The procedure: (§4) Harvested cell was subjected to two times of freeze and thaw in 100 μL of PBS. The lysed cell was then pelleted and the supernatant was subjected to GSH and ROS quantification using Glutathione assay kit (Sigma, USA) and OxiSelect ROS assay kit (Cell Biolabs, USA) according to manufacturers’ protocol.
(§5) For GSH quantification, 10 μL of cell lysate supernatant was added with 150 μL of working solution (1.5 mg/mL DTNB solution, 6 units/mL glutathione reductase and 1× assay buffer), incubated for 5 min and added with 50 μL of NADPH solution (0.16 mg/mL). The absorbance was read at a wavelength of 412 nm by ELISA plate reader (Bio-Tek instrument, USA) for every minute in duration of 5 min. For intracellular ROS quantification, supernatant was added with 10 μM DCFH-DA for 30 min at 37 °C. Then, the fluorescence intensity of DCFH-DA was measured using microplate fluorometer (Thermo Scientific, USA) with a 485/538 nm filter. Fold change of GSH and ROS was calculated by dividing absorbance or fluorescence intensity of DK1 treated MCF-7 with untreated control MCF-7.

The test system of test [4] is ROS in MCF-7 cells. The experiment in a line: Intracellular reactive oxygen species (ROS) detection, DCFH-DA. Type of test: cell-based, human. Conditions: MCF-7, 25 µM. The method, then: as §4, §5
Test [5] relates to active caspase 9 in MCF-7 cells. Description: Active caspase 9 staining (CaspGLOW), fluorometry. Conditions: MCF-7, 25 µM. Format: cell-based, human. The method, then: The level of active caspase 9 and cytochrome c of the control and DK1 treated MCF-7 were quantified using CaspGLOW Red Active Caspase-9 staining kit (BioVision, USA) and human cytochrome c platinum ELISA (eBioscience Affymetrix, USA), respectively according to manufacturers’ protocol. Fold change of caspase 9 and cytochrome c was calculated by dividing fluorescence intensity or absorbance of DK1 treated MCF-7 with untreated control MCF-7.

Test [6] relates to p53 in MCF-7 cells. The experiment in a line: Western blot analysis of p53. Format: cell-based, human. To be noted: MCF-7, 25 µM, western blot. The procedure: Total protein was extracted from harvested cell with Radioimmunoprecipitation assay (RIPA) buffer supplemented with phosphatase inhibitor cocktail (Roche, Canada) and the concentration was quantified by Bradford assay (Sigma, USA). Then, 100 μg of extracted protein was subjected to sodium dodecyl sulfate polyacrylamide gel electrophoresis (SDS-PAGE) (Bio-Rad, USA), transferred to nitrocellulose membrane, block with 0.5% skimmed milk overnight, washed with Tris-buffered saline tween (TBST) buffer and incubated with primary antibodies (anti-CDC2, anti-pCDC2 (Tyr15), anti-p53, and anti-β-actin at a dilution of 1:1000 (Abcam, USA) for 1 h. After that, membranes were washed, incubated with 1:5000 diluted goat anti-rabbit IgG H&L conjugated to […] (Abcam, USA) and developed under chemiluminescence condition (Super Signal West Pico, Pierce, USA) using the ChemiDoc XRS (Bio-Rad, USA). Differential level of evaluated protein in control and DK1 treated MCF-7 was calculated based on the bands intensity analyzed using the Quantity One 1D Analysis software (Bio-rad, USA).

With `O=C(/C=C(\O)c1ccccc1)c1ccccc1O` [DK1, (Z)-3-hydroxy-1-(2-hydroxyphenyl)-3-phenylprop-2-en-1-one], the IC50 in test [1] (24 h) is more than 150 µM; in test [1] (48 h) it was 138 ± 4.13 µM; in test [1] (72 h) it was 64.2 ± 3.12 µM; in test [2] (24 h) it was 96.8 ± 4.87 µM; in test [2] (48 h), 33.3 ± 3.5 µM; in test [2] (72 h) it was 25 ± 3.71 µM. Besides, the “Selective index of MCF-10A/MCF-7” value in test [2] (IC50 MCF-10A / IC50 MCF-7, 24 h) is more than 2.17; in test [2] (IC50 MCF-10A / IC50 MCF-7, 48 h), 3.75; in test [2] (IC50 MCF-10A / IC50 MCF-7, 72 h), 4.17. The SI values result in test [2] (MCF-7, overall statement) was “higher than 2”. Moreover, the “reduction of GSH level compared to control” value in test [3] (48 h) is given as ~ 2.2 fold; in test [3] (72 h), ~ 3.3 fold. The results for the “generation of ROS compared to control” value in test [4] (48 h) and in test [4] (72 h) were ~ 1.9 fold and ~ 2.6 fold, respectively. For the same compound, the “promotion of active caspase 9 compared to control” value is ~ 1.9 fold in test [5] (48 h) and ~ 2.4 fold in test [5] (72 h). Moreover, the results for the “promotion of p53 protein compared to control” value in test [6] (48 h) and in test [6] (72 h) were ~ 1.6 fold and ~ 2.0 fold, respectively.
